Several values for one entry are separate records, joined by “and”; a condition that tells them apart may be missing. Identical values can stand only once. Inconclusive results and toxic doses are left out. Cut-off read from the data, not from the text of the source: active = T/C of 150% or more; inactive = T/C below 125%.
Test system: L1210 leukemia ip in BDF1 mice, survival T/C
Assay: NCI In Vivo Anticancer Drug Screen. Data for tumor model L1210 Leukemia (intraperitoneal) in B6D2F1 (BDF1) mice
Conditions: endpoint: mean survival time, higher = longer survival
Summary of the method: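 Mice bearing the transplanted tumor received compound or vehicle. Survival of the treated group was divided by that of the vehicle-treated control group to give the ratio.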

[1] = dose: 10.0 mg/kg/injection, schedule: Q01DX001 (ip), vehicle: saline
[2] = dose: 100.0 mg/kg/injection, schedule: Q01DX009 (ip), vehicle: Klucel (hydroxypropylcellulose) (HPC)
[3] = dose: 200.0 mg/kg/injection, schedule: Q01DX009 (ip), vehicle: Klucel (hydroxypropylcellulose) (HPC)
[4] = dose: 400.0 mg/kg/injection, schedule: Q01DX009 (ip), vehicle: Klucel (hydroxypropylcellulose) (HPC)
[5] = dose: 100.0 mg/kg/injection, schedule: Q04DX003 (ip), vehicle: Klucel (hydroxypropylcellulose) (HPC)
[6] = dose: 200.0 mg/kg/injection, schedule: Q04DX003 (ip), vehicle: Klucel (hydroxypropylcellulose) (HPC)
[7] = dose: 400.0 mg/kg/injection, schedule: Q04DX003 (ip), vehicle: Klucel (hydroxypropylcellulose) (HPC)
[8] = dose: 100.0 mg/kg/injection, schedule: Q01DX009 (ip), vehicle: saline
[9] = dose: 100.0 mg/kg/injection, schedule: Q01DX001 (ip), vehicle: saline
[10] = dose: 400.0 mg/kg/injection, schedule: Q01DX001 (ip), vehicle: saline
[11] = dose: 200.0 mg/kg/injection, schedule: Q01DX001 (ip), vehicle: saline
[12] = dose: 100.0 mg/kg/injection, schedule: Q01DX001 (ip), vehicle: saline with Tween-80
[13] = dose: 200.0 mg/kg/injection, schedule: Q01DX001 (ip), vehicle: saline with Tween-80
[14] = dose: 400.0 mg/kg/injection, schedule: Q01DX001 (ip), vehicle: saline with Tween-80
[15] = dose: 100.0 mg/kg/injection, schedule: Q04DX003 (ip), vehicle: saline with Tween-80
[16] = dose: 200.0 mg/kg/injection, schedule: Q04DX003 (ip), vehicle: saline with Tween-80
[17] = dose: 400.0 mg/kg/injection, schedule: Q04DX003 (ip), vehicle: saline with Tween-80

Measured: T/C

CNC1=C(N2CC2C)C(=O)C(NC)=C(N2CC2C)C1=O (stereo not drawn)
active: dose: 5.0 mg/kg/injection, schedule: Q01DX009 (ip), vehicle: saline 169 % of control | dose: 12.0 mg/kg/injection, schedule: Q04DX003 (ip), vehicle: saline 152 % of control | dose: 12.5 mg/kg/injection, schedule: Q04DX003 (ip), vehicle: saline 152 % of control and 193 % of control
inactive: dose: 0.31 mg/kg/injection, schedule: Q01DX009 (ip), vehicle: saline 104 % of control and 108 % of control | dose: 0.62 mg/kg/injection, schedule: Q01DX009 (ip), vehicle: saline 104 % of control | dose: 1.25 mg/kg/injection, schedule: Q01DX009 (ip), vehicle: saline 114 % of control and 116 % of control | dose: 1.56 mg/kg/injection, schedule: Q04DX003 (ip), vehicle: saline 101 % of control | dose: 2.5 mg/kg/injection, schedule: Q01DX009 (ip), vehicle: saline 116 % of control | dose: 3.12 mg/kg/injection, schedule: Q04DX003 (ip), vehicle: saline 98 % of control and 111 % of control and 115 % of control | dose: 6.25 mg/kg/injection, schedule: Q04DX003 (ip), vehicle: saline 109 % of control and 123 % of control | [1] 96 % of control | dose: 10.0 mg/kg/injection, schedule: Q01DX009 (ip), vehicle: saline 94 % of control and 119 % of control | dose: 25.0 mg/kg/injection, schedule: Q04DX003 (ip), vehicle: saline 96 % of control and 118 % of control | dose: 50.0 mg/kg/injection, schedule: Q04DX003 (ip), vehicle: saline 98 % of control and 89 % of control

C/C(=N\NC(=O)CCCCC(=O)N/N=C(\C)c1ccc(C)cc1)c1ccc(C)cc1
inactive: [2] 88 % of control | [3] 90 % of control | [4] 91 % of control

CC(C)(C)C(=O)Oc1ccc(C(C)(C)C)cc1
inactive: [2] 101 % of control | [5] 104 % of control | [3] 102 % of control | [6] 98 % of control | [4] 98 % of control | [7] 92 % of control

CC(C)C(CNC1=NCCN1)c1cccc2ccccc12 (stereo not drawn)
inactive: dose: 12.5 mg/kg/injection, schedule: Q04DX003 (ip), vehicle: saline with Tween-80 93 % of control | dose: 25.0 mg/kg/injection, schedule: Q04DX003 (ip), vehicle: saline with Tween-80 93 % of control | dose: 50.0 mg/kg/injection, schedule: Q04DX003 (ip), vehicle: saline with Tween-80 119 % of control

Cc1ccc(S(=O)(=O)OCCN2C(=O)NC(c3ccccc3)(c3ccccc3)C2=O)cc1
inactive: dose: 3.1 mg/kg/injection, schedule: Q01DX009 (ip), vehicle: saline 104 % of control | dose: 6.25 mg/kg/injection, schedule: Q01DX009 (ip), vehicle: saline 100 % of control | dose: 12.5 mg/kg/injection, schedule: Q01DX009 (ip), vehicle: saline 104 % of control | dose: 25.0 mg/kg/injection, schedule: Q01DX009 (ip), vehicle: saline 98 % of control | dose: 50.0 mg/kg/injection, schedule: Q01DX009 (ip), vehicle: saline 100 % of control | [8] 102 % of control | dose: 150.0 mg/kg/injection, schedule: Q04DX003 (ip), vehicle: saline with Tween-80 109 % of control | dose: 225.0 mg/kg/injection, schedule: Q04DX003 (ip), vehicle: saline with Tween-80 109 % of control | dose: 335.0 mg/kg/injection, schedule: Q04DX003 (ip), vehicle: saline with Tween-80 98 % of control

NC1CC2(CCC1=O)c1ccccc1-c1ccccc12 (stereo not drawn)
inactive: [9] 101 % of control | [10] 104 % of control

Cc1cccc(OS(=O)(=O)c2ccccc2[N+](=O)[O-])c1
inactive: dose: 100.0 mg/kg/injection, schedule: Q01DX009 (ip), vehicle: saline sonified 103 % of control | [5] 93 % of control | [6] 96 % of control | dose: 400.0 mg/kg/injection, schedule: Q01DX009 (ip), vehicle: saline sonified 111 % of control | [7] 90 % of control

CCCCCCCCC(=O)NCCCNC(=O)CCCCCCCC
inactive: dose: 30.0 mg/kg/injection, schedule: Q01DX001 (ip), vehicle: saline 96 % of control | [9] 91 % of control | dose: 300.0 mg/kg/injection, schedule: Q01DX001 (ip), vehicle: saline 93 % of control

Nc1c(Cl)ncnc1Nc1ccccc1C(=O)O
inactive: dose: 50.0 mg/kg/injection, schedule: Q01DX001 (ip), vehicle: saline 102 % of control | [9] 93 % of control | [11] 98 % of control | [10] 98 % of control

CC12CCC(O)CC1=CC=C1C2CCC2(C)C(OC(=O)c3ccccc3)CCC12 (stereo not drawn)
inactive: [12] 91 % of control | [13] 93 % of control | [14] 98 % of control

CC1OC2CC(=O)OC2C2=C1C(=O)c1c(O)c3c(c(O)c1C2=O)C1CC(O)C3(O)C(C)O1 (stereo not drawn)
inactive: dose: 0.01 mg/kg/injection, schedule: Q01DX Z (ip), vehicle: saline 112 % of control | dose: 0.03 mg/kg/injection, schedule: Q01DX Z (ip), vehicle: saline 98 % of control | dose: 0.05 mg/kg/injection, schedule: Q01DX Z (ip), vehicle: saline 90 % of control | dose: 0.1 mg/kg/injection, schedule: Q01DX Z (ip), vehicle: saline 95 % of control | dose: 0.2 mg/kg/injection, schedule: Q01DX Z (ip), vehicle: saline 95 % of control and 100 % of control | dose: 0.4 mg/kg/injection, schedule: Q01DX Z (ip), vehicle: saline 90 % of control | dose: 0.8 mg/kg/injection, schedule: Q01DX Z (ip), vehicle: saline 89 % of control | dose: 1.6 mg/kg/injection, schedule: Q01DX Z (ip), vehicle: saline 94 % of control | dose: 3.2 mg/kg/injection, schedule: Q01DX Z (ip), vehicle: saline 86 % of control | dose: 5.0 mg/kg/injection, schedule: Q01DX001 (ip), vehicle: saline 102 % of control | dose: 6.4 mg/kg/injection, schedule: Q01DX Z (ip), vehicle: saline 92 % of control | [1] 102 % of control | dose: 12.0 mg/kg/injection, schedule: Q01DX Z (ip), vehicle: saline 92 % of control | dose: 12.8 mg/kg/injection, schedule: Q01DX Z (ip), vehicle: saline 87 % of control | dose: 20.0 mg/kg/injection, schedule: Q01DX001 (ip), vehicle: saline 97 % of control | dose: 40.0 mg/kg/injection, schedule: Q01DX001 (ip), vehicle: saline 97 % of control

O=[N+]([O-])c1cncc([N+](=O)[O-])c1NCc1ccccc1
inactive: [15] 103 % of control | [16] 93 % of control | [17] 104 % of control

CCN(CC)c1ccc(C(=O)OC(C)CNCC(C)CCCC(C)C)cc1 (stereo not drawn)
inactive: dose: 75.0 mg/kg/injection, schedule: Q01DX001 (ip), vehicle: carboxymethylcellulose (CMC) 90 % of control | dose: 150.0 mg/kg/injection, schedule: Q01DX001 (ip), vehicle: carboxymethylcellulose (CMC) 94 % of control | dose: 300.0 mg/kg/injection, schedule: Q01DX001 (ip), vehicle: carboxymethylcellulose (CMC) 93 % of control

Cc1ccc(S(=O)(=O)OCC2OCOC2C2OCOC2CI)cc1 (stereo not drawn)
inactive: [12] 101 % of control | [13] 101 % of control | [14] 93 % of control

CC(C)=CCOc1ccc(C(=O)O)cc1
inactive: [9] 100 % of control | [11] 116 % of control | [10] 107 % of control

Nc1nc2nc(-c3ccccc3)nc(N)c2nc1-c1ccc(N(CCCl)CCCl)cc1
inactive: dose: 50.0 mg/kg/injection, schedule: Q01DX001 (ip), vehicle: carboxymethylcellulose (CMC) 98 % of control | dose: 100.0 mg/kg/injection, schedule: Q01DX001 (ip), vehicle: carboxymethylcellulose (CMC) 95 % of control | dose: 200.0 mg/kg/injection, schedule: Q01DX001 (ip), vehicle: carboxymethylcellulose (CMC) 101 % of control | dose: 400.0 mg/kg/injection, schedule: Q01DX001 (ip), vehicle: carboxymethylcellulose (CMC) 98 % of control

O=C(Nc1cc(S(=O)(=O)F)ccc1Cl)Oc1ccc([N+](=O)[O-])cc1
inactive: [15] 102 % of control | [16] 97 % of control | [17] 100 % of control

O=[N+]([O-])c1ccc(C2=Cc3cccn3-c3ccccc3S2(=O)=O)cc1
inactive: [5] 96 % of control | [6] 95 % of control | [7] 98 % of control

O=C1COC(=O)N1
inactive: [8] 100 % of control | dose: 200.0 mg/kg/injection, schedule: Q01DX009 (ip), vehicle: saline 100 % of control | dose: 400.0 mg/kg/injection, schedule: Q01DX009 (ip), vehicle: saline 100 % of control
